# Results from PubChem BioAssay (NCI).
#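 The compound was tested at five concentrations on cells cultured in 96-well plates, with a 48-hour exposure period. At the TGI there is no net growth.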 Where a SMILES comes first, the peptide text is derived from it. The star is where a group is joined. Cbz = O=C(OCc1ccccc1)*
# Assays:
# Test in all cases: growth of human tumour cells (NCI), 48 h
# 786-0 renal = test system: 786-0 renal
# A498 renal = test system: A498 renal
# A549 NSCLC = test system: A549 NSCLC
# ACHN renal = test system: ACHN renal
# BT-549 breast = test system: BT-549 breast
# CAKI-1 renal = test system: CAKI-1 renal
# CCRF-CEM leukemia = test system: CCRF-CEM leukemia
# COLO 205 colon = test system: COLO 205 colon
# DU-145 prostate = test system: DU-145 prostate
# EKVX NSCLC = test system: EKVX NSCLC
# HCC-2998 colon = test system: HCC-2998 colon
# HCT-116 colon = test system: HCT-116 colon
# HCT-15 colon = test system: HCT-15 colon
# HL-60(TB) leukemia = test system: HL-60(TB) leukemia
# HOP-62 NSCLC = test system: HOP-62 NSCLC
# HOP-92 NSCLC = test system: HOP-92 NSCLC
# HS 578T breast = test system: HS 578T breast
# HT29 colon = test system: HT29 colon
# IGROV1 ovarian = test system: IGROV1 ovarian
# K-562 leukemia = test system: K-562 leukemia
# KM12 colon = test system: KM12 colon
# LOX IMVI melanoma = test system: LOX IMVI melanoma
# M14 melanoma = test system: M14 melanoma
# MALME-3M melanoma = test system: MALME-3M melanoma
# MCF7 breast = test system: MCF7 breast
# MDA-MB-231 breast = test system: MDA-MB-231 breast
# MDA-MB-435 = test system: MDA-MB-435
# MDA-N = test system: MDA-N
# MOLT-4 leukemia = test system: MOLT-4 leukemia
# NCI-H226 lung = test system: NCI-H226 lung
# NCI-H23 lung = test system: NCI-H23 lung
# NCI-H460 lung = test system: NCI-H460 lung
# NCI-H522 lung = test system: NCI-H522 lung
# NCI/ADR-RES ovarian = test system: NCI/ADR-RES ovarian
# OVCAR-3 ovarian = test system: OVCAR-3 ovarian
# OVCAR-4 ovarian = test system: OVCAR-4 ovarian
# OVCAR-5 ovarian = test system: OVCAR-5 ovarian
# OVCAR-8 ovarian = test system: OVCAR-8 ovarian
# PC-3 prostate = test system: PC-3 prostate
# RPMI-8226 leukemia = test system: RPMI-8226 leukemia
# RXF 393 renal = test system: RXF 393 renal
# SF-268 CNS = test system: SF-268 CNS
# SF-295 CNS = test system: SF-295 CNS
# SF-539 CNS = test system: SF-539 CNS
# SK-MEL-2 melanoma = test system: SK-MEL-2 melanoma
# SK-MEL-28 melanoma = test system: SK-MEL-28 melanoma
# SK-MEL-5 melanoma = test system: SK-MEL-5 melanoma
# SK-OV-3 ovarian = test system: SK-OV-3 ovarian
# SN12C renal = test system: SN12C renal
# SNB-19 CNS = test system: SNB-19 CNS
# SNB-75 CNS = test system: SNB-75 CNS
# SR leukemia = test system: SR leukemia
# SW-620 colon = test system: SW-620 colon
# T-47D breast = test system: T-47D breast
# TK-10 renal = test system: TK-10 renal
# U251 CNS = test system: U251 CNS
# UACC-257 melanoma = test system: UACC-257 melanoma
# UACC-62 melanoma = test system: UACC-62 melanoma
# UO-31 renal = test system: UO-31 renal
smiles,measurement,setting,value
CCOC(=O)CCC(NC(=O)C(Cc1ccccc1)NC(=O)OCc1ccccc1)C(=O)OCC (stereo not drawn) (Cbz-Phe-Glu(OEt)-OEt; configuration not given here),TGI,786-0 renal,32 µM
same,TGI,A498 renal,43.9 µM
same,TGI,A549 NSCLC,36.9 µM
same,TGI,ACHN renal,31.2 µM
same,TGI,BT-549 breast,> 100 µM
same,TGI,CAKI-1 renal,30.4 µM
same,TGI,CCRF-CEM leukemia,> 64.7 µM
same,TGI,COLO 205 colon,35.3 µM
same,TGI,DU-145 prostate,22.3 µM
same,TGI,EKVX NSCLC,39.1 µM
same,TGI,HCC-2998 colon,32.1 µM
same,TGI,HCT-116 colon,32.1 µM
same,TGI,HCT-15 colon,41.6 µM
same,TGI,HL-60(TB) leukemia,41.2 µM
same,TGI,HOP-62 NSCLC,32.5 µM
same,TGI,HOP-92 NSCLC,36.3 µM
same,TGI,HS 578T breast,35 µM
same,TGI,HT29 colon,42.1 µM
same,TGI,IGROV1 ovarian,32.3 µM
same,TGI,K-562 leukemia,> 100 µM
same,TGI,KM12 colon,32.6 µM
same,TGI,LOX IMVI melanoma,27.9 µM
same,TGI,M14 melanoma,29.3 µM
same,TGI,MALME-3M melanoma,33.1 µM
same,TGI,MCF7 breast,39.6 µM
same,TGI,MDA-MB-231 breast,29.5 µM
same,TGI,MDA-MB-435,35.5 µM
same,TGI,MDA-N,32.6 µM
same,TGI,MOLT-4 leukemia,> 71.3 µM
same,TGI,NCI-H226 lung,32.6 µM
same,TGI,NCI-H23 lung,33.1 µM
same,TGI,NCI-H460 lung,38.5 µM
same,TGI,NCI-H522 lung,29.6 µM
same,TGI,NCI/ADR-RES ovarian,42 µM
same,TGI,OVCAR-3 ovarian,28.6 µM
same,TGI,OVCAR-4 ovarian,32.1 µM
same,TGI,OVCAR-5 ovarian,32.6 µM
same,TGI,OVCAR-8 ovarian,36.2 µM
same,TGI,PC-3 prostate,32.1 µM
same,TGI,RPMI-8226 leukemia,> 76 µM
same,TGI,RXF 393 renal,32.1 µM
same,TGI,SF-268 CNS,34.5 µM
same,TGI,SF-295 CNS,34.1 µM
same,TGI,SF-539 CNS,37.6 µM
same,TGI,SK-MEL-2 melanoma,48 µM
same,TGI,SK-MEL-28 melanoma,33.2 µM
same,TGI,SK-MEL-5 melanoma,28.8 µM
same,TGI,SK-OV-3 ovarian,30.5 µM
same,TGI,SN12C renal,37.7 µM
same,TGI,SNB-19 CNS,36.7 µM
same,TGI,SNB-75 CNS,35.1 µM
same,TGI,SR leukemia,> 68.8 µM
same,TGI,SW-620 colon,34.9 µM
same,TGI,T-47D breast,32.2 µM
same,TGI,TK-10 renal,34.6 µM
same,TGI,U251 CNS,28.9 µM
same,TGI,UACC-257 melanoma,30.5 µM
same,TGI,UACC-62 melanoma,32.5 µM
same,TGI,UO-31 renal,31.2 µM
C/C(=N\NC(=S)N1CCCC1)c1nc2ncccc2[nH]1,TGI,786-0 renal,21.7 µM
same,TGI,A498 renal,27.1 µM
same,TGI,A549 NSCLC,> 100 µM
same,TGI,ACHN renal,11.4 µM
same,TGI,BT-549 breast,13 µM
same,TGI,CAKI-1 renal,37.1 µM
same,TGI,CCRF-CEM leukemia,1.1 µM
same,TGI,COLO 205 colon,28.5 µM
same,TGI,DU-145 prostate,13.1 µM
same,TGI,HCC-2998 colon,> 100 µM
same,TGI,HCT-116 colon,18.1 µM
same,TGI,HCT-15 colon,> 100 µM
same,TGI,HL-60(TB) leukemia,> 100 µM
same,TGI,HOP-62 NSCLC,24.6 µM
same,TGI,HOP-92 NSCLC,8.5 µM
same,TGI,HS 578T breast,> 100 µM
same,TGI,HT29 colon,20.2 µM
same,TGI,K-562 leukemia,37 µM
same,TGI,KM12 colon,23.8 µM
same,TGI,LOX IMVI melanoma,13.1 µM
same,TGI,M14 melanoma,31.3 µM
same,TGI,MALME-3M melanoma,63.9 µM
same,TGI,MCF7 breast,13.4 µM
same,TGI,MDA-MB-231 breast,> 100 µM
same,TGI,MDA-MB-435,> 100 µM
same,TGI,MDA-N,> 100 µM
same,TGI,MOLT-4 leukemia,3.7 µM
same,TGI,NCI-H226 lung,4.31 µM
same,TGI,NCI-H23 lung,22.1 µM
same,TGI,NCI-H460 lung,1.68 µM
same,TGI,NCI-H522 lung,30.2 µM
same,TGI,NCI/ADR-RES ovarian,> 100 µM
same,TGI,OVCAR-3 ovarian,> 100 µM
same,TGI,OVCAR-4 ovarian,18.6 µM
same,TGI,OVCAR-5 ovarian,20.7 µM
same,TGI,OVCAR-8 ovarian,39.9 µM
same,TGI,PC-3 prostate,> 100 µM
same,TGI,RPMI-8226 leukemia,39.4 µM
same,TGI,SF-268 CNS,> 100 µM
same,TGI,SF-295 CNS,22.6 µM
same,TGI,SF-539 CNS,0.523 µM
same,TGI,SK-MEL-2 melanoma,46.8 µM
same,TGI,SK-MEL-28 melanoma,28.2 µM
same,TGI,SK-MEL-5 melanoma,2.93 µM
same,TGI,SK-OV-3 ovarian,54.2 µM
same,TGI,SN12C renal,> 100 µM
same,TGI,SNB-19 CNS,17.1 µM
same,TGI,SNB-75 CNS,> 100 µM
same,TGI,SR leukemia,> 100 µM
same,TGI,SW-620 colon,64.4 µM
same,TGI,T-47D breast,> 100 µM
same,TGI,TK-10 renal,45 µM
same,TGI,U251 CNS,13.5 µM
same,TGI,UACC-257 melanoma,10.7 µM
same,TGI,UACC-62 melanoma,11.2 µM
same,TGI,UO-31 renal,0.492 µM
Cc1ccc2occ/c(=N\Nc3ccccc3)c2c1,TGI,786-0 renal,> 100 µM
same,TGI,A498 renal,> 100 µM
same,TGI,A549 NSCLC,> 100 µM
same,TGI,ACHN renal,> 100 µM
same,TGI,BT-549 breast,> 100 µM
same,TGI,CAKI-1 renal,> 100 µM
same,TGI,CCRF-CEM leukemia,> 100 µM
same,TGI,COLO 205 colon,> 100 µM
same,TGI,DU-145 prostate,> 100 µM
same,TGI,EKVX NSCLC,98 µM
same,TGI,HCC-2998 colon,> 100 µM
same,TGI,HCT-116 colon,> 100 µM
same,TGI,HCT-15 colon,> 100 µM
same,TGI,HL-60(TB) leukemia,> 100 µM
same,TGI,HOP-62 NSCLC,> 100 µM
same,TGI,HOP-92 NSCLC,97.4 µM
same,TGI,HS 578T breast,> 100 µM
same,TGI,HT29 colon,> 100 µM
same,TGI,IGROV1 ovarian,> 100 µM
same,TGI,K-562 leukemia,> 100 µM
same,TGI,KM12 colon,78.5 µM
same,TGI,LOX IMVI melanoma,> 100 µM
same,TGI,M14 melanoma,> 100 µM
same,TGI,MALME-3M melanoma,> 100 µM
same,TGI,MCF7 breast,> 100 µM
same,TGI,MDA-MB-231 breast,> 100 µM
same,TGI,MDA-MB-435,> 100 µM
same,TGI,MDA-N,> 100 µM
same,TGI,NCI-H226 lung,> 100 µM
same,TGI,NCI-H23 lung,> 100 µM
same,TGI,NCI-H460 lung,> 100 µM
same,TGI,NCI-H522 lung,> 100 µM
same,TGI,NCI/ADR-RES ovarian,> 100 µM
same,TGI,OVCAR-3 ovarian,> 100 µM
same,TGI,OVCAR-4 ovarian,> 100 µM
same,TGI,OVCAR-5 ovarian,> 100 µM
same,TGI,OVCAR-8 ovarian,> 100 µM
same,TGI,PC-3 prostate,> 100 µM
same,TGI,RPMI-8226 leukemia,> 100 µM
same,TGI,RXF 393 renal,58.9 µM
same,TGI,SF-268 CNS,> 100 µM
same,TGI,SF-295 CNS,> 100 µM
same,TGI,SF-539 CNS,> 100 µM
same,TGI,SK-MEL-2 melanoma,> 100 µM
same,TGI,SK-MEL-28 melanoma,> 100 µM
same,TGI,SK-MEL-5 melanoma,> 100 µM
same,TGI,SK-OV-3 ovarian,> 100 µM
same,TGI,SN12C renal,> 100 µM
same,TGI,SNB-19 CNS,> 100 µM
same,TGI,SNB-75 CNS,63.2 µM
same,TGI,SR leukemia,> 100 µM
same,TGI,SW-620 colon,> 100 µM
same,TGI,T-47D breast,30.5 µM
same,TGI,TK-10 renal,> 100 µM
same,TGI,U251 CNS,> 100 µM
same,TGI,UACC-257 melanoma,> 100 µM
same,TGI,UACC-62 melanoma,> 100 µM
same,TGI,UO-31 renal,> 100 µM
